Tests used:
Assay type in all cases: cell-based
[1] = test system: T-Rex 293 cell line SC cells having increased expression of progesterone receptor isoform B protein due to exposure to doxycycline; test: Cellular growth inhibition, T-Rex 293 SC cells with doxycycline (progesterone receptor isoform B induced), Example 47; settings: progesterone receptor isoform B induced with 10 ng/mL doxycycline, 72 hours, CellTiter-Glo 2.0, Table 14 (Example 47)
Procedure: The following types of cells were prepared for this experiment: (i) a T-Rex 293 cell line having increased expression of progesterone receptor isoform B protein due to exposure to doxycycline and (ii) a T-Rex 293 cell line lacking increased expression of progesterone receptor isoform B protein. Ability of the test compounds to inhibit proliferation of the foregoing cell types was evaluated according to the procedures set forth below.
The doxycycline-inducible progesterone receptor isoform B protein expressing cell line was established using the following protocol: T-Rex 293 cells were purchased from Invitrogen (Cat #R71007) and transfected using Lipofectamine 2000 with the wild-type progesterone receptor B protein sequence cloned into the pcDNA4/TO vector. Transfected cells were selected using 400 μg/mL Zeocin (Invitrogen Cat #R25001). Following selection, single clones were raised and maintained in Dulbecco's Modified Eagle Medium (DMEM) supplemented with 10% w/w Tetracycline-free fetal bovine serum (FBS) and 250 μg/mL Zeocin. Clones were analyzed for expression of progesterone receptor isoform B protein in the presence and absence of 10 ng/mL doxycycline (Sigma Cat #D9891), and a single doxycycline-inducible clone (hereinafter “SC”) was selected for use in downstream assays.
The SC cells were seeded on poly-D-lysine coated, black clear-bottom 384-well plates at 2500/well, in 25 μL Phenol Red Free Dulbecco's Modified Eagle Medium (DMEM) supplemented with 10% w/w charcoal-dextran treated fetal bovine serum (FBS) and 1% w/w pen-strep, with or without 10 ng/mL doxycycline. Pen-Strep is a commercially available mixture of penicillin G and streptomycin, which is used in mammalian cell culture media to prevent bacterial contamination. Phenol Red Free Dulbecco's Modified Eagle Medium (DMEM) supplemented with 10% w/w charcoal-dextran treated fetal bovine serum (FBS) and 1% w/w pen-strep, with or without 10 ng/mL doxycycline is herein referred to as Treatment Medium. Following seeding of cells in the plates, the plates were spun at 300×g for 30 seconds, then equilibrated to room temperature for 30 minutes, and then deposited in a humidified tissue culture incubator maintained at 37° C. with 5% CO2.
At 24 hours after seeding of the cells, dilutions of test compound were prepared in DMSO and dissolved in Treatment Medium, to achieve a final DMSO concentration of 0.5% w/w, thereby providing the Test Compound Solution. A 25 μL aliquot of the Test Compound Solution was added to cells in the well plates. An equal volume of a solution containing DMSO and Treatment Medium was used as a negative control. Following treatment of cells with Test Compound Solution or said equal volume of a solution containing DMSO and Treatment Medium, the plates were spun at 300×g for 30 seconds, and then left in an incubator for 72 hours.
At the end of the treatment duration, cell viability was quantified with CellTiter-Glo 2.0 reagent (Promega Cat #G9243). For this purpose, plates were equilibrated to room temperature for 30 minutes, and then 25 μL of CellTiter-Glo 2.0 reagent was added to cells in the plate wells. Plates were then agitated on a shaker for two minutes at 500 rpm and subsequently incubated at room temperature for 10 minutes. Following incubation, the plates were spun at 3000×g for 30 seconds, then sealed with an optical adhesive cover, and luminescence readings were measured with an EnVision Plate Reader (Perkin Elmer).
Data was normalized using zero luminescence for baseline. A four-parameter non-linear regression curve fit was applied to dose-response data in GraphPad Prism data analysis software to determine the half-maximal growth inhibitory concentration (GI50) for each test compound.

LnCaP95 Parental cells = test: Cellular growth inhibition assay for LnCaP95 Parental cells, CellTiter-Glo; settings: CellTiterGlo assay, 6 days
Procedure: (§1) T47D LnCap95 Parental and T47D LnCap95 AR-FL KO cells were seeded in 25 μL growth media in poly-d lysine coated black clear-bottom 384-well plates at 2500 cells/well with Phenol Red Free RPMI containing 10% charcoal stripped serum and 1% pen strep. Following seeding, plates were spun at 300×g for 30 seconds, then equilibrated to room temperature for 30 minutes, and moved into the incubator. 24 hours after seeding, compounds were titrated in 100% DMSO and diluted in growth medium. 25 μL of the compound/medium mixture was added to cells, bringing the total volume in each well to 50 μL. DMSO was used as a negative control.
After treatment, plates were spun at 300×g for 30 seconds, then cultured at 37° C. with 5% CO2 for 6 days in a humidified tissue culture incubator. On Day 6 of treatment, cell viability was quantified with CellTiter-Glo 2.0 reagent (Promega). Plates were equilibrated to room temperature for 30 minutes, then 25 μL of CellTiter-Glo 2.0 reagent was added to cells, bringing the total volume in each well to 75 μL. After reagent was added, plates were spun at 300×g for 30 seconds then mixed on a shaker for two minutes at 500 rpm and then incubated in dark at room temperature for 10 minutes. Following incubation, plates were spun at 300×g for 30 seconds, sealed with an optical adhesive cover, and luminescence readings were measured with an EnVision Plate Reader. […]

[2] = test system: 22RV1 cells overexpressing FL-AR (22RV1 Parental(FL-AR^hi)); test: 22RV1 apoptosis assay (Caspase-Glo 3/7), cells overexpressing FL-AR; settings: Caspase 3/7 Glo assay
Procedure: as §1, with “22RV1” for “T47D LnCap95”, “22RV1/AR” for “T47D LnCap95 AR-FL KO”, “5000” for “2500”, “PenStrep.” for “pen strep.”
After treatment, plates were spun at 300×g for 30 seconds, then cultured at 37° C. with 5% CO2 for 24 or 48 hours in a humidified tissue culture incubator. After 24 or 48 hours of treatment, Caspase 3/7 activity was quantified with Caspase-Glo 3/7 reagent (Promega). Plates were equilibrated to room temperature for 30 minutes, then 25 μL of Caspase-Glo 3/7 reagent was added to cells, bringing the total volume in each well to 75 μL. After reagent was added, plates were spun at 300×g for 30 seconds then mixed on a shaker for two minutes at 500 rpm and then incubated in the dark at room temperature for one hour. Following incubation, plates were spun at 300×g for 30 seconds, sealed with an optical adhesive cover, and luminescence reads were measured with an EnVision Plate Reader. […]

Row | SMILES | GI50 [1] [µM] | activity in parental LnCaP95 cells compared to AR knockout cells (LnCaP95 Parental cells; parental vs LnCaP95 AR-FL KO cells) | GI50 (LnCaP95 Parental cells; LNCaP-95, 144 h, parental LnCaP95 cells) [µM] | apoptosis in 22RV1 FL-AR^hi cells as compared to parental 22RV1 FL-AR^low cells [2] | EC50 ([2]; Homo sapiens, 22RV1 cells overexpressing FL-AR (FL-AR^hi), 24 or 48 hours) [µM]
1 | Cc1sc2c(c1C)C(c1ccc(Cl)cc1)=N[C@@H](CC(=O)NCCCCCOC1CCN(c3ncc(C(=O)N[C@H]4C(C)(C)[C@H](Oc5ccc(C#N)c(Cl)c5)C4(C)C)cn3)CC1)c1nnc(C)n1-2 [Compound I-22, N-((1r,3r)-3-(3-chloro-4-cyanophenoxy)-2,2,4,4-tetramethylcyclobutyl)-2-(4-((5-(2-((S)-4-(4-chlorophenyl)-2,3,9-trimethyl-6H-thieno[3,2-A][1,2,4]triazolo[4,3-a][1,4]diazepin-6-yl)acetamido)pentyl)oxy)piperidin-1-yl)pyrimidine-5-carboxamide] | > 3 | – | – | – | –
2 | Cc1sc2c(c1C)C(c1ccc(OC3CC4(CCN(c5ncc(C(=O)N[C@H]6C(C)(C)[C@H](Oc7ccc(C#N)c(Cl)c7)C6(C)C)cn5)CC4)C3)cc1)=N[C@@H](Cc1ncco1)c1nnc(C)n1-2 [Compound I-49, N-[3-(3-chloro-4-cyano-phenoxy)-2,2,4,4-tetramethyl-cyclobutyl]-2-[2-[4-[(9S)-4,5,13-trimethyl-9-(oxazol-2-ylmethyl)-3-thia-1,8,11,12-tetrazatricyclo[8.3.0.02,6]trideca-2(6),4,7,10,12-pentaen-7-yl]phenoxy]-7-azaspiro[3.5]nonan-7-yl]pyrimidine-5-carboxamide] | – | enhanced activity in parental LnCaP95 cells | 0.037 | highly apoptotic | 0.126
